Data on 3 compounds can be found in US6413990B1, “Arylsulphonamide-substituted benzimidazoles having tryptase-inhibiting activity” (Boehringer Ingelheim Pharma KG, priority 1999, dated 2002).

For data set [1], the target named is T1, rh beta tryptase (Homo sapiens, UniProt Q15661).
T1 construct: purchased Promega
The experiment in a line: tryptase inhibition test (cleavage of N-p-tosyl-Gly-Pro-Lys-para-nitroaniline, p-nitroaniline measured at 405 nm). Format: biochemical. Particulars: Tris HCl buffer pH 7.4 with calcium and heparin, 37° C., substrate 0.6 mM, 5 minutes pre-incubation, 5 minutes incubation. On the procedure:
The compounds according to the invention are characterised by their tryptase-inhibiting activity. This ability to inhibit tryptase was investigated using the test described below.
The measurement is carried out in Tris HCl buffer (100 mM), which additionally contains calcium (5 mM) and heparin ([…]), at pH 7.4. The standard used is rh beta tryptase which may be obtained commercially from Promega, for example. The substrate used is N-p-tosyl-Gly-Pro-Lys-para-nitroaniline in a concentration of 0.6 mM. The substrate is digested with tryptase to form p-nitroaniline which can be measured at 405 nm. Usually, an incubation period of 5 minutes and an incubation temperature of 37° C. are chosen. The enzyme activity used is 0.91 U/ml. The measurements are carried out in an Autoanalyser (Cobas Bio) made by Hofmann LaRoche. The potential inhibitory substances are used in concentrations of 10 μM in the screening, the inhibition of the tryptase being given in percent. The IC50 is determined at over 70% inhibition (concentration at which 50% of the enzyme activity is inhibited). After 5 minutes pre-incubation of the potential inhibitory substances, the substrate is added to start the reaction, the formation of p-nitroaniline being taken as a measurement of the enzyme activity after 5 minutes, after testing the linearity.
The data obtained after carrying out the tests described above (IC50 values) can be found in Table 2.

Counter-ions that a name gives are not always drawn.

T1 sequence (Q15661 31-275): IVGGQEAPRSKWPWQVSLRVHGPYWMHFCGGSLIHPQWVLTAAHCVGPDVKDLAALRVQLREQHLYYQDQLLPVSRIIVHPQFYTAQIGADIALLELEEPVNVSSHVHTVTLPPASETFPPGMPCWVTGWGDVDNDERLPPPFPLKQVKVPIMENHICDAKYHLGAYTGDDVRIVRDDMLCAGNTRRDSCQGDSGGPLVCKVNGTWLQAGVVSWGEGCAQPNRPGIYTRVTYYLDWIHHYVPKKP

By melting point is commonly meant the temperature, or range, at which the solid turns liquid. For `CN(C)c1cccc2c(S(=O)(=O)N(C)c3ccc4c(c3)nc(CCc3ccc(C(=N)N)cc3)n4C)cccc12` (as salt: hydrochloride) [Example 13, N-{2-[2-(4-amidinophenyl)-ethyl]-1-methyl-benzimidazol-5-yl}-N-methyl-(dansylamide)-hydrochloride], the melting point lay in the range of 222 to 225 °C. Usually IC50 stands for the midpoint of a concentration-inhibition curve. `CCN(CC)CCN(c1ccc2c(c1)nc(CCc1ccc(C(=N)N)cc1)n2C)S(=O)(=O)c1ccc(Cl)cc1` [Example 10, N-{2-[2-(4-amidinophenyl)-ethyl]-1-methyl-benzimidazol-5-yl}-N-diethylaminoethyl-(4-chloro-benzenesulphonamide)]: the melting point was 88 to 90 °C. Also, the 50% inhibitory concentration (IC50) in data set [1] turned out to be 49 nM. Compound `CCN(CC)CCN(c1ccc2c(c1)nc(CCc1ccc(C(N)=NO)cc1)n2C)S(=O)(=O)c1cccc(Br)c1` [Example 36, N-{2-[2-(4-amino-hydroximinomethyl)phenyl-ethyl]-1-methyl-benzimidazol-5-yl}-N-diethylaminoethyl-(3-bromo-benzenesulphonamide)] yielded a melting point of 156 °C.
